According to US11938127B2, “Methods and compositions relating to steroid hormone receptor-dependent proliferative disorders” (Wayne State University, priority 2021, dated 2024):
Where two headings read alike, the source gives them in different places.

Key:
UGT1A1 [1] = assay: Hepatic enzyme induction (mRNA) in primary human hepatocytes, UGT1A1; assay type: in vitro ADME; conditions: 72 hours, doses of 0.5 uM and 5 uM
Description: (§1) Total RNA from cells was isolated using the PureLink RNA Mini Kit (Invitrogen, ThermoFisher Scientific) according to the manufacturer's protocol. Reverse transcription was performed using 30 ng of total RNA and the High Capacity cDNA Reverse Transcription kit (Applied Biosystems, ThermoFisher Scientific) according to the vendor's protocol. cDNA was measured by quantitative real time PCR using the StepOnePlus Real-Time PCR System (Applied Biosystems, Invitrogen) and TaqMan Fast Universal PCR Master Mix (Applied Biosystems, ThermoFisher Scientific). All primers and TaqMan probes were purchased from the Applied Biosystems inventory (ThermoFisher Scientific). All samples were measured in triplicate and normalized to the values for GAPDH.
(§2) Primary human hepatocytes used were the “Cryo Human Hepatocytes” from Gibco. 24 hours prior to treatment, cells were plated at 350,000 cells/well (700,000 cells/mL) in the following media: Williams E medium (WEM, A1217601), 2.5 mL FBS, 5 μL, 10 mM dexamethasone (from Gibco Thawing/Plating Supplement Pack, CM3000), 1.8 mL thawing/plating cocktail (from Gibco Thawing/Plating Supplement Pack, CM3000). […] The mRNAs for the following hepatic enzymes were quantified as described above. […]

UGT1A4 = assay: Hepatic enzyme induction (mRNA) in primary human hepatocytes, UGT1A4; assay type: in vitro ADME; conditions: 72 hours, doses of 0.5 uM and 5 uM
Description: as §1, §2

CYP1A2 [2] = assay: Hepatic enzyme induction (mRNA) in primary human hepatocytes, CYP1A2; assay type: in vitro ADME; conditions: 72 hours
Description: as §1, §2

HEK293 cells = assay: Viability of HEK293 cells (trypan blue); assay type: cell-based; conditions: 3 days treatment, 0.4 μM or 10 μM
Description: (§3) HEK293T cells were transfected with Rluc-AR alone, and alongside Turbo-Elk at a 4:1 ratio of ELK1:AR using Mirus LT1 reagent. The 4:1 ratio was determined to be the optimal ratio for the inhibition assay after testing different ratios of Turbo-Elk:Rluc-AR. 24 hours later, cells were treated with DMSO (vehicle control) or KCI838 (0.4 uM and 10 uM) and left for 24 hours. They were then trypsinized and seeded in 96 well white-bottomed plates at 100,000 per well (in quadriplicate) in media lacking phenol red (with DMSO or drug as required), left for 2 hours to settle, and then treated with 25 uM coelenterazine and luminescence read at 535 and 635 nm on a Clariostar instrument. BRET readings were calculated as 635/535 ratio minus 635/535 ratio for Rluc-AR only transfected controls. Cell lysates were probed by western blot for AR or ELK1, probing for GAPDH as the loading control. Cell viability in the presence of KCI838 was ensured by treating HEK293 cells for an extended period (3 days) with the compound or vehicle control and measuring viability using trypan blue staining.
To ensure that KCI838 was not toxic to the HEK293 cells, viability of the cells was tested following extended (3 days) treatment with, vehicle, 0.4 μM, or 10 μM KCI838. Viable cells were counted after three days and the data was plotted as percent of untreated cells.

CYP1A2 [3] = target: CYP1A2 (Homo sapiens (Human), UniProt P05177); assay: CYP1A2 inhibition assay in pooled human liver microsomes; assay type: in vitro ADME; conditions: standard enzymatic activity assay
CYP1A2 (Homo sapiens (Human), UniProt P05177), sequence (P05177 whole entry): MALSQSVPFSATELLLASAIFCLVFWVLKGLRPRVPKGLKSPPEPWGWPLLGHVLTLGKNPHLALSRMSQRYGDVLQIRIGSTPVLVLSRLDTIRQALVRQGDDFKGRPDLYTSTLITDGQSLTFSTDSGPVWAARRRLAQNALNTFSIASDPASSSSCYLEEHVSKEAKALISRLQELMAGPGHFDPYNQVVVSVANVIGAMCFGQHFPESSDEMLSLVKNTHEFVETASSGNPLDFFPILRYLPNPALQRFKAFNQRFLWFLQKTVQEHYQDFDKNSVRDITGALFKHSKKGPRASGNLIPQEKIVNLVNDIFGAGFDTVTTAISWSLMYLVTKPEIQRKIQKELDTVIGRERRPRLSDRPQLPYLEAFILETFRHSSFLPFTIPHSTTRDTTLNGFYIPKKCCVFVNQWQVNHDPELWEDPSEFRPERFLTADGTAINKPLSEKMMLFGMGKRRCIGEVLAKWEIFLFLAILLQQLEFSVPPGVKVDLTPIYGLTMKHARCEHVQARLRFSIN
Description: The quenched samples were incubated at 4° C. for 10 min and centrifuged at 4° C. for 10 min.

UGT1A1 [4] = target: UGT1A1 (Homo sapiens (Human), UniProt P22309); assay: UGT1A1 inhibition assay with human UGT1A1-expressed Supersomes; assay type: in vitro ADME
UGT1A1 (Homo sapiens (Human), UniProt P22309), sequence (P22309 26-533): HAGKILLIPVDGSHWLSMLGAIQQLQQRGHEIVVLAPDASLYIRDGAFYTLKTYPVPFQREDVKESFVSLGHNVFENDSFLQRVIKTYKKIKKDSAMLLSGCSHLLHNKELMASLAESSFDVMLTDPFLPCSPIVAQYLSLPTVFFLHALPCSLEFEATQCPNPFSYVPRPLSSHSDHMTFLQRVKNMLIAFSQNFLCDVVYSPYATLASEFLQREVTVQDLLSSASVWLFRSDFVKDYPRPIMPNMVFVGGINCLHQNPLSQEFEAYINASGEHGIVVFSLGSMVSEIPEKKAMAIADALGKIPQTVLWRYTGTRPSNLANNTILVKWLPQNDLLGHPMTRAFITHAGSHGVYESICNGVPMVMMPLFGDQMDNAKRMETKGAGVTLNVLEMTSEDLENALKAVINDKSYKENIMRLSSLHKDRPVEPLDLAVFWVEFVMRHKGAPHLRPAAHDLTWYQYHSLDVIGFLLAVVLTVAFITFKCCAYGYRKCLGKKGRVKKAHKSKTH
Description: KCI838 was incubated at seven increasing concentrations with human UGT1A1-expressed Supersomes™ (0.25 mg/mL), alamethicin (25 μg/mL) and UDPGA (5 mM) in the presence of the probe substrate estradiol (10 μM) for 30 min at 37° C. The UGT1A1 inhibitor, atazanavir, was screened alongside the test compounds as a positive control. The reactions were terminated by quenching with one volume of methanol containing an analytical internal standard. The samples will be centrifuged at 5000 rpm for 10 min at 4° C. The metabolites were monitored by LC-MS/MS and a decrease in the formation of the metabolite compared to the vehicle control was used to calculate an IC50 value (test compound concentration which produces 50% inhibition).

22Rv1-Lenti AR cells = assay: Colony formation in 22Rv1 cells overexpressing AR; assay type: cell-based; conditions: AR overexpressing 22Rv1 cells
Description: (§4) 22Rv1 cells were plated in triplicate at a density of 2000 cells/well in 6-well plates in 48-hour conditioned medium (phenol-red free RPMI1640 10% FBS, 1% penicillin/streptomycin, 1% L-glutamine) obtained from monolayer cultures of the same cells, as previously described. 48 h after plating, the cells were treated with various concentrations of the test compounds in the same media. The test compounds and media were replenished every 48 hours until colonies developed in the control untreated wells (in 10 days). The colonies were then stained with crystal violet and counted.
(§5) AR expressing lentiviral expression plasmid pCDH-CMV-MCS-EF1-puro (System BioSciences) or the plasmid vector alone (control), was packaged in 293FT cells. Virus-containing media was harvested at 48 and 72 hours after packaging and stored at −80° C. 48 hours before infection, 22Rv1 cells were plated at 30-50% confluence in 10 cm dishes in phenol-red free medium supplemented with 10% heat-inactivated FBS and 2 mM L-glutamine. On the day of infection, cells were infected with the lentivirus with polybrene (8 μg/mL) for a duration of 5 hours. The virus was then replaced with fresh medium containing 10% FBS and 100 units/mL penicillin, 100 μg/mL streptomycin, and 2 mM L-glutamine mixture. […]

binding of AR to ELK1 = binding of AR to ELK1 (Homo sapiens (Human), UniProt P10275); assay: BRET assay for inhibition of in situ binding of AR to ELK1 in HEK293T cells; assay type: cell-based; conditions: HEK-293T, read-out: inhibition of BRET signal for binding of AR to ELK1
binding of AR to ELK1, sequence (P10275 whole entry): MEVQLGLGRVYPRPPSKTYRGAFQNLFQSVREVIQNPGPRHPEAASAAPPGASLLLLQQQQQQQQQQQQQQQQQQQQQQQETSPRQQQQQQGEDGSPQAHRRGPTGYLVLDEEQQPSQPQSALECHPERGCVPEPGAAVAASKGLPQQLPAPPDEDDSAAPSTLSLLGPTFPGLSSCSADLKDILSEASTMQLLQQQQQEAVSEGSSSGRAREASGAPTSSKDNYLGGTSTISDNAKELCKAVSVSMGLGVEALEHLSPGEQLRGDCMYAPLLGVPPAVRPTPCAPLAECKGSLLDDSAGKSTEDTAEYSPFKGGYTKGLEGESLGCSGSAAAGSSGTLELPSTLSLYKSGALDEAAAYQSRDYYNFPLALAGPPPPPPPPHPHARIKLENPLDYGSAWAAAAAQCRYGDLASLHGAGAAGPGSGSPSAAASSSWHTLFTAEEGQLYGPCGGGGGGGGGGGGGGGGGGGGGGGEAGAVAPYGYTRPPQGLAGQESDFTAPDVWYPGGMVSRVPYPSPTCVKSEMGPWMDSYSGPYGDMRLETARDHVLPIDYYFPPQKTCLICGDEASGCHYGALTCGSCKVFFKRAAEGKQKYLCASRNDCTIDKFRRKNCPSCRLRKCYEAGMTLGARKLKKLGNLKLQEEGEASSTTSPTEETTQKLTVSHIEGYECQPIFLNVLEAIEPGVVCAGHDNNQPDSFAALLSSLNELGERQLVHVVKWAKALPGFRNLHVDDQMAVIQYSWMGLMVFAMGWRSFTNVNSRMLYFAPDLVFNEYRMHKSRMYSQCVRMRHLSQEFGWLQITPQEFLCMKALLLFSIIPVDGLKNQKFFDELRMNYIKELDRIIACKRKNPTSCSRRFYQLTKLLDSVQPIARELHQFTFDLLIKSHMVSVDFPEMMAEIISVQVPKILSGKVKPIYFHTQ
Description: as §3
HEK293T cells were transfected with Rluc-AR alone, and alongside Turbo-Elk. 24 hours later, cells were treated with KCI838 at the indicated doses. The following day, the cells were reseeded and allowed to settle for two hours before the BRET assay was performed. […]

22Rv1 cells [5] = assay: Colony formation assay in 22Rv1 cells; assay type: cell-based; conditions: 22Rv1 CRPC cells
Description: as §4
The ability of KCI837 to inhibit colony formation in castration and enzalutamide resistant prostate cancer cells was tested. 22Rv1 cells were seeded in triplicate six well plates in phenol red-free conditioned media. 48 hours later, treatment with KCI837 at the indicated doses was initiated. KCI837 was replenished every 48 hours. Seven days later, colonies were fixed and stained with crystal violet. Colony counts are plotted.

22Rv1-Lenti vector cells = assay: Colony formation in control 22Rv1 cells transduced with lentiviral vector alone; assay type: cell-based; conditions: control 22Rv1 cells (vector), with DHT
Description: as §4, §5

[6] = Repeated intraperitoneal administration to mice (toxicity, body weight); assay type: in vivo, BalbC mice; conditions: for initial weight loss: male BalbC mice, intraperitoneal
Description: KCI838 was repeatedly administered by intraperitoneal injection to two groups of 6-week old male BalbC mice at doses of 200 mg/Kg and 100 mg/Kg.

VCaP cells = assay: Cell viability (MTT) assay, monolayer growth of VCaP cells; assay type: cell-based; conditions: dose range 2.5 uM-10 uM; dose-dependent
Description: (§6) Cells from monolayer cultures were trypsinized and seeded in 96-well plates coated with poly(d-lysine) at a density of 4000 cells per well (for 22Rv1 cells and LNCaP cells) or 5000 cells per well (for VCaP cells). The media used were the same as the growth media described above for each cell line. The plates were incubated at 37° C. in 5% CO2. Twenty-four hours later, the cells were treated with the indicated compound or dimethylsulfoxide (vehicle). The culture medium was replaced with fresh media containing vehicle or the appropriate concentration of compound at the end of 48 hours during the time course of the assay. Cell viability was determined on Day 0 and at the various time points using the standard 3-(4,5-dimethylthiazol-2-yl)-2,5-diphenyltetrazolium bromide (MTT) assay. The assays ware conducted in replicates of six wells per condition and values plotted as percent of the Day 0 values.

CWR22Rv1-AR-EK cells = assay: MTT growth assay in CWR22Rv1-AR-EK cells; assay type: cell-based; conditions: three or four days
Description: This model cell line thus mimics aggressively growing advanced prostate cancer tumor cells that are insensitive to current treatments such as testosterone suppression and androgen antagonists that cannot affect AR-Vs. Since KCI838 disrupts interaction of ELK1 with wtAR as well as AR-Vs, the effect of KCI838 on the growth of CWR22Rv1-AR-EK cells was tested. For this test, the cells were seeded in phenol red-free growth media. 24 hours later, the cells were treated with KCI838, FIG. 12A, or enzalutamide, FIG. 12B, at the indicated concentrations. Cells were grown for three or four days with replenishment of the drug at 48 hours. Cell viability was measured using the MTT assay.

22Rv1 cells [7] = assay: Cell viability (MTT) assay, monolayer growth of 22Rv1 cells; assay type: cell-based; conditions: enzalutamide-resistant 22Rv1 CRPC monolayers; 2.5 uM, 5 uM and 10 uM
Description: as §6

Compound: O=c1cc(-c2cccc(O)c2)n(CC(F)(F)F)c2cccc(O)c12 [KCI838]
- induction of UGT1A1 (UGT1A1 [1]): not induced significantly
- induction of UGT1A4 (UGT1A4): not induced significantly
- induction of CYP1A2 (CYP1A2 [2]; 0.5 uM dose): unable to induce CYP1A2
- induction of CYP1A2 (CYP1A2 [2]; higher doses than 0.5 uM): induce the enzyme
- viability of HEK293 cells (HEK293 cells): virtually completely viable
- IC50 (CYP1A2 [3]): 2920 nM
- IC50 (UGT1A1 [4]; standard enzymatic activity assay, read-out: IC50 value for UGT1A1): 35900 nM
- inhibition of colony formation at 68 nM (22Rv1-Lenti AR cells; 68 nM): no inhibition
- IC50 (22Rv1-Lenti AR cells; Homo sapiens, with DHT, read-out: IC50 for inhibition of colony formation): 132 nM
- inhibition at 0.4 µM (binding of AR to ELK1; 0.4 μM): 60%
- inhibition at 10 µM (binding of AR to ELK1; 10 μM): 95%
- IC50 (22Rv1 cells [5]; Homo sapiens, read-out: IC50 of colony counts): ~60 nM
- IC50 (22Rv1-Lenti vector cells; Homo sapiens, read-out: IC50 for inhibition of colony formation): 68 nM
- IC75 for inhibition of colony formation (22Rv1-Lenti vector cells): 121 nM
- signs of toxicity ([6]; 6-week old male BalbC mice, repeated intraperitoneal injection, 200 mg/Kg and 100 mg/Kg): no apparent signs of toxicity
- initial weight loss ([6]; 100 mg/Kg): ~2%
- initial weight loss ([6]; 200 mg/Kg): ~4%

Compound: COC(=O)N[C@H](C(=O)N[C@@H](Cc1ccccc1)[C@@H](O)CN(Cc1ccc(-c2ccccn2)cc1)NC(=O)[C@@H](NC(=O)OC)C(C)(C)C)C(C)(C)C [atazanavir, reference compound]
- IC50 (UGT1A1 [4]; human UGT1A1 Supersomes, probe substrate estradiol (10 μM), 30 min at 37° C., read-out: IC50): 792 nM

Compound: CNC(=O)c1ccc(N2C(=S)N(c3ccc(C#N)c(C(F)(F)F)c3)C(=O)C2(C)C)cc1F [enzalutamide]
- monolayer growth of VCaP cells (VCaP cells): inhibited monolayer growth
- effect on colony formation (22Rv1 cells [5]; nanomolar dose range): no effect on colony formation
- growth of CWR22Rv1-AR-EK cells (CWR22Rv1-AR-EK cells): insensitive
- time course of growth inhibition (22Rv1 cells [7]): did not inhibit cell growth
